Holding throughout (assay type): cell-based
The test system of one assay is E. coli ATCC25922. The assay is described as follows: Bacterial growth minimal inhibitory concentration (broth microdilution, CLSI M7-A7). The conditions noted are these: quinolone-sensitive strain; for MIC: Escherichia coli, ATCC25922, cation-adjusted Mueller Hinton Broth; for MIC for E. coli ATCC25922: cation-adjusted Mueller Hinton Broth. As to the method: (§1) Minimal Inhibitory Concentrations (MICs; mg/L) were determined in cation-adjusted MuellerHinton Broth by a microdilution method following the description given in “Methods for Dilution Antimicrobial Susceptibility Tests for Bacteria that grow Aerobically”, Approved standard, 7th ed., Clinical and Laboratory Standards Institute (CLSI) Document M7-A7, Wayne, Pa., USA (2006).
(§2) All Example compounds were tested against several Gram-positive and Gram-negative bacteria. […] K pneumoniae A-651 is a multiply-resistant strain (in particular quinolone-resistant), while E. coli ATCC25922 and P. aeruginosa ATCC27853 are quinolone-sensitive strains.

In the next assay the test system is K. Pneumoniae A-651. The description is as above. The conditions noted are these: cation-adjusted Mueller Hinton Broth, multiply-resistant (quinolone-resistant) strain; for MIC: Klebsiella pneumoniae. As to the method: as §1, §2
Another assay deals with P. aeruginosa ATCC27853. The assay is described as above. The conditions noted are these: quinolone-sensitive strain; for MIC: Pseudomonas aeruginosa, ATCC27853, cation-adjusted Mueller Hinton Broth; for MIC for P. aeruginosa ATCC27853: cation-adjusted Mueller Hinton Broth. The method, then:
as §1, §2

A further assay deals with wild-type E. coli A-1261. The assay is described as follows: MIC with or without alkaline phosphatase or esterase (prodrug activation). The conditions noted are these: Escherichia coli. The method, then: Minimal Inhibitory Concentrations (MICs; mg/L) were determined in cation-adjusted MuellerHinton Broth by a microdilution method following the description given in “Methods for Dilution Antimicrobial Susceptibility Tests for Bacteria that grow Aerobically”, Approved standard, 7th ed., Clinical and Laboratory Standards Institute (CLSI) Document M7-A7, Wayne, Pa., USA (2006). The compounds of Examples 5 and 12 were tested against wild-type E. coli A-1261 in the absence of alkaline phosphatase or esterase, in the presence of an alkaline phosphatase, and in the presence of an esterase. The corresponding antibacterial test results are given in Table 2 hereafter (MICs in mg/L).

Setting [1] is: alkaline phosphatase 2 i.U./mL, read-out: MIC for E. coli A-1261 In the presence of an alkaline phosphatase (2 i.U./mL).
Setting [2] is: esterase 10 i.U./mL, read-out: MIC for E. coli A-1261 In the presence of an esterase (10 i.U./mL).
The mark [3] stands for this setting: no alkaline phosphatase or esterase, read-out: MIC for E. coli A-1261 In the absence of alkaline phosphatase or esterase.

In brackets after ≈: the same amount, converted by molar mass. Where two headings read alike, the source gives them in different places.

For `COc1ccc(-c2ccc3c(c2)oc(=O)n3CCC(C)(C(=O)NO)S(C)(=O)=O)c(F)c1` (racemic) [RE1, (2RS)-4-(6-(2-fluoro-4-methoxyphenyl)-2-oxobenzo[d]oxazol-3(2H)-yl)-N-hydroxy-2-methyl-2-(methylsulfonyl)butanamide], the MIC in the assay with E. coli ATCC25922 was 2 µg/mL (≈ 4.42 µM); in the assay with K. Pneumoniae A-651, 1 µg/mL (≈ 2.21 µM); in the assay on P. aeruginosa ATCC27853, greater than 8 µg/mL.

As for `CC(CCn1c(=O)oc2cc(C#CC#CC3(O)COC3)ccc21)(C(=O)NO)S(C)(=O)=O` (racemic) [RE2, (2RS)—N-hydroxy-4-(6-((3-hydroxyoxetan-3-yl)buta-1,3-diyn-1-yl)-2-oxobenzo[d]oxazol-3(2H)-yl)-2-methyl-2-(methylsulfonyl)butanamide], the MIC in the assay on E. coli ATCC25922 is 4 µg/mL (≈ 8.92 µM); with K. Pneumoniae A-651, 8 µg/mL (≈ 17.8 µM); with P. aeruginosa ATCC27853, greater than 8 µg/mL.

Regarding `C[C@@](CCn1c(=O)oc2cc(C#Cc3ccc(CO)cc3)ccc21)(C(=O)NO)S(C)(=O)=O` [Example 1], the “MIC for E. coli ATCC25922” value in the assay on E. coli ATCC25922 was found to be 0.25 µg/mL. Also, the “MIC for K. Pneumoniae A-651” value in the assay with K. Pneumoniae A-651 turned out to be 0.5 µg/mL. The “MIC for P. aeruginosa ATCC27853” value against P. aeruginosa ATCC27853 stood at 4 µg/mL.

For `C[C@@](CCn1c(=O)oc2cc(C#CC#CC3(CO)CC3)ccc21)(C(=O)NO)S(C)(=O)=O` [Example 2, (2R)—N-hydroxy-4-(6-((1-(hydroxymethyl)cyclopropyl)buta4,3-diyn-1-yl)-2-oxobenzo[d]oxazol-3(2H)-yl)-2-methyl-2-(methylsulfonyl)butanamide], in the assay with E. coli ATCC25922, the “MIC for E. coli ATCC25922” value is 0.25 µg/mL. For the same compound, in the assay with K. Pneumoniae A-651, the “MIC for K. Pneumoniae A-651” value came to 1 µg/mL. Also, the “MIC for P. aeruginosa ATCC27853” value against P. aeruginosa ATCC27853 came out at 1 µg/mL.

For the compound `C[C@@](CCn1c(=O)oc2cc(C#Cc3ccc(CN4CCOCC4)cc3)ccc21)(C(=O)NO)S(C)(=O)=O` [Example 3], in the assay with E. coli ATCC25922, the “MIC for E. coli ATCC25922” value was determined as 2 µg/mL. The “MIC for K. Pneumoniae A-651” value in the assay with K. Pneumoniae A-651 is 2 µg/mL. Further, the “MIC for P. aeruginosa ATCC27853” value against P. aeruginosa ATCC27853 was greater than 8 µg/mL.

With `CNC1(C#CC#Cc2ccc3c(c2)oc(=O)n3CC[C@](C)(C(=O)NO)S(C)(=O)=O)CC1` [Example 4, (2R)—N-hydroxy-2-methyl-4-(6-((1-(methylamino)cyclopropyl)buta-1,3-diyn-1-yl)-2-oxobenzo[d]oxazol-3(2H)-yl)-2-(methylsulfonyl)butanamide], the MIC against E. coli ATCC25922 turned out to be 0.25 µg/mL (≈ 0.561 µM); against K. Pneumoniae A-651, 0.25 µg/mL (≈ 0.561 µM); in the assay on P. aeruginosa ATCC27853 it was 1 µg/mL (≈ 2.24 µM).

On to `C[C@@](CCn1c(=O)oc2cc(C#CC#C[C@H]3C[C@@H]3CO)ccc21)(C(=O)NO)S(C)(=O)=O` [Example 5, (2R)—N-hydroxy-4-(6-(((1S,2S)-2-(hydroxymethyl)cyclopropyl)buta-1,3-diyn-1-yl)-2-oxobenzo[d]oxazol-3 (2H)-yl)-2-methyl-2-(methylsulfonyl)butanamide], for which the MIC in the assay on E. coli ATCC25922 was found to be 0.063 µg/mL (≈ 0.141 µM); against K. Pneumoniae A-651, 0.125 µg/mL (≈ 0.28 µM); with P. aeruginosa ATCC27853, 0.5 µg/mL (≈ 1.12 µM); in the assay on wild-type E. coli A-1261 (setting [1]), 0.063 µg/mL; in the assay with wild-type E. coli A-1261 (setting [2]), 0.063 µg/mL; in the assay on wild-type E. coli A-1261 (setting [3]), 0.063 µg/mL (≈ 0.141 µM).

`C[C@@](CCn1c(=O)oc2cc(C#CC#C[C@H]3C[C@]3(F)CO)ccc21)(C(=O)NO)S(C)(=O)=O` [Example 6, (2R)-4-(6-(((1R,2R)-2-fluoro-2-(hydroxymethyl)cyclopropyl)buta-1,3-diyn-1-yl)-2-oxobenzo[d]oxazol-3(2H)-yl)-N-hydroxy-2-methyl-2-(methylsulfonyl)butanamide]: the results for the MIC against E. coli ATCC25922, with K. Pneumoniae A-651 and in the assay on P. aeruginosa ATCC27853 were 0.125 µg/mL (≈ 0.269 µM), 0.25 µg/mL (≈ 0.538 µM) and 0.5 µg/mL (≈ 1.08 µM), respectively.

`C[C@@](CCn1c(=O)oc2cc(C#CC#CCOC(=O)N3CC(O)C3)ccc21)(C(=O)NO)S(C)(=O)=O` [Example 7, (3R)-5-(3-(4-(hydroxyamino)-3-methyl-3-(methylsulfonyl)-4-oxobutyl)-2-oxo-2,3-dihydrobenzo[d]oxazol-6-yl)penta-2,4-diyn-1-yl 3-hydroxyazetidine-1-carboxylate]: the MIC against E. coli ATCC25922 is 0.5 µg/mL (≈ 0.989 µM); against K. Pneumoniae A-651, 1 µg/mL (≈ 1.98 µM); in the assay on P. aeruginosa ATCC27853 it was 1 µg/mL (≈ 1.98 µM).

On to `C[C@@](CCn1c(=O)oc2cc(C#CC#CC3(N)CC3)ccc21)(C(=O)NO)S(C)(=O)=O` [Example 8, (2R)-4-(6-((1-aminocyclopropyl)buta-1,3-diyn-1-yl)-2-oxobenzo[d]oxazol-3(2H)-yl)-N-hydroxy-2-methyl-2-(methylsulfonyl)butanamide], for which the MIC against E. coli ATCC25922 was found to be 0.125 µg/mL (≈ 0.29 µM); against K. Pneumoniae A-651, 0.25 µg/mL (≈ 0.579 µM); against P. aeruginosa ATCC27853, 1 µg/mL (≈ 2.32 µM).

As for `CN1CC(C#CC#Cc2ccc3c(c2)oc(=O)n3CC[C@](C)(C(=O)NO)S(C)(=O)=O)C1` [Example 9, (2R)—N-hydroxy-2-methyl-4-(6-((1-methylazetidin-3-yl)buta-1,3-diyn-1-yl)-2-oxobenzo[d]oxazol-3(2H)-yl)-2-(methylsulfonyl)butanamide], the MIC amounted to 1 µg/mL (≈ 2.24 µM) with E. coli ATCC25922, 0.5 µg/mL (≈ 1.12 µM) against K. Pneumoniae A-651 and 1 µg/mL (≈ 2.24 µM) in the assay with P. aeruginosa ATCC27853.

`CN1CC(C#CC#Cc2ccc3c(c2)sc(=O)n3CC[C@](C)(C(=O)NO)S(C)(=O)=O)C1` [Example 10, (2R)—N-hydroxy-2-methyl-4-(6-((1-methylazetidin-3-yl)buta-1,3-diyn-1-yl)-2-oxobenzo[d]thiazol-3(2H)-yl)-2-(methylsulfonyl)butanamide]: the MIC with E. coli ATCC25922 turned out to be 0.5 µg/mL (≈ 1.08 µM); in the assay on K. Pneumoniae A-651, 1 µg/mL (≈ 2.17 µM); against P. aeruginosa ATCC27853 it was 2 µg/mL (≈ 4.33 µM).

For `C[C@@](CCn1c(=O)sc2cc(C#CC#C[C@H]3C[C@]3(F)CO)ccc21)(C(=O)NO)S(C)(=O)=O` [Example 11, (2R)-4-(6-(((1R,2R)-2-fluoro-2-(hydroxymethyl)cyclopropyl)buta-1,3-diyn-1-yl)-2-oxobenzo[d]thiazol-3(2H)-yl)-N-hydroxy-2-methyl-2-(methylsulfonyl)butanamide], the MIC is 0.063 µg/mL (≈ 0.131 µM) against E. coli ATCC25922, 0.25 µg/mL (≈ 0.52 µM) with K. Pneumoniae A-651 and 1 µg/mL (≈ 2.08 µM) in the assay on P. aeruginosa ATCC27853.

On to `C[C@@](CCn1c(=O)oc2cc(C#CC#C[C@H]3C[C@@H]3COP(=O)(O)O)ccc21)(C(=O)NO)S(C)(=O)=O` [Example 12, ((1S,2S)-2-((3-((3R)-4-(hydroxyamino)-3-methyl-3-(methylsulfonyl)-4-oxobutyl)-2-oxo-2,3-dihydrobenzo[d]oxazol-6-yl)buta-1,3-diyn-1-yl)cyclopropyl)methyl dihydrogen phosphate], for which the figures for the MIC in the assay on wild-type E. coli A-1261 (setting [1]), in the assay with wild-type E. coli A-1261 (setting [2]) and with wild-type E. coli A-1261 (setting [3]) were 0.125 µg/mL, greater than 8 µg/mL and greater than 8 µg/mL, respectively.

For the compound `C[C@@](CCn1c(=O)sc2cc(C#Cc3ccc(CO)cc3)ccc21)(C(=O)NO)S(C)(=O)=O` [Example 13], the “MIC for E. coli ATCC25922” value against E. coli ATCC25922 was 0.125 µg/mL. In addition, the “MIC for K. Pneumoniae A-651” value against K. Pneumoniae A-651 was determined as 0.5 µg/mL. The “MIC for P. aeruginosa ATCC27853” value in the assay on P. aeruginosa ATCC27853 came out at 8 µg/mL.

The values above are taken from patent US20180251434A1, “ANTIBACTERIAL HETEROCYCLIC DERIVATIVES” (priority 2015, published 2018).
